The results in this text go back to paper PMC9015527 (Chemistry (Weinheim an Der Bergstrasse, Germany), 2021).

The test system of data set [1] is SARS-CoV-2 isolate MUC-IMB-1/2020. The data set is classed as cell-based.
For data set [2], the system named is SARS-CoV-2 d6-YFP.
Data set [3] deals with SARS-CoV-2 isolate MUC-IMB-1/2020. The data set is described as follows: microbe, parasite or virus in culture. It is filed as cell-based.
Data set [4] in a line: in vitro. As to conditions: human, Caco-2.
Data set [5] in a line: in vitro. The note with it: simian (monkey).

SMILES strings stand for the structures.

One may read the EC50 as the concentration giving half of the maximal effect.

Consider `CCN(CC)CCCC(C)Nc1ccnc2cc(Cl)ccc12` (stereo not shown) [CQ, chloroquine], for which the “SI (Vero 76, mAb-S)” value in data set [1] is on record as greater than 32.3. In addition, the “SI (Caco-2)” value in data set [2] worked out at 3.2. In data set [3], the “SI (Vero 76, mAb-dsRNA)” value is recorded as greater than 14. The EC50 in data set [3] (Severe acute respiratory syndrome coronavirus 2, Vero 76, read-out: EC50 (Vero 76, mAb-dsRNA)) was 2.2 ± 0.9 µM. In addition, the CC50 is 41.7 ± 2.5 µM in data set [4]; greater than 100 µM in data set [5] (CC50 (Vero 76, mAb-S)); greater than 30 µM in data set [5] (CC50 (Vero 76, mAb-dsRNA)).
